Legend:
[1] = tested on: snake venom phosphodiesterase; test: Enzymatic stability was assessed with snake venom phosphodiesterase (SV PDE) exonuclase; type: ADME; settings: serpentes, snake venom phosphodiesterase (SV PDE) exonuclease
[2] = tested on: bovine spleen phosphodiesterase; test: Enzymatic stability was assessed with bovine spleen phosphodiesterase (BS PDE) exonuclase; type: ADME, Bos taurus; settings: cattle, bovine spleen phosphodiesterase (BS PDE) exonuclease
[3] = molecular target: Human immunodeficiency virus type 1 reverse transcriptase (Human immunodeficiency virus 1, UniProt Q72547); test: Inhibitory activity against HIV reverse transcriptase (HIV RT)

Ki [3] [nM] | SMILES | half-life [1] [min] | half-life [2] [min]
 | Nc1ncnc2c1ncn2[C@@H]1CO[C@H](COP(=O)([O-])OC2C[C@H](n3cnc4c(N)ncnc43)OC2CO)C1.[Na+] (stereo not given in full) | > 550 | 50
 | Nc1ncnc2c1ncn2[C@H]1C[C@H](OP(=O)(O)OC[C@H]2O[C@@H](n3cnc4c(N)ncnc43)C[C@@H]2O)[C@@H](CO)O1 | < 1 | 1.5
16 | Nc1ncnc2c1ncn2C1COC(COP(=O)(O)OP(=O)(O)OP(=O)(O)O)C1 (stereo not given) |  | 

Source: ChEMBL document CHEMBL1153691, “2-Deoxyadenylyl-(35)-isodideoxyadenosine, a unique dinucleotide: Synthesis, enzymology, and conformational studies” (Bioorg Med Chem Lett, 1995)
